Results reported in patent EP0641563A1, “REMEDY FOR CATARACT AND PRODUCTION THEREOF” (TAISHO PHARMACEUTICAL CO. LTD, priority 1992, dated 1993).
Values belong to the molecule of their own block, whether it stands above or below them.

Columns and labels:
cultured rat lenses [1] = experiment: Calcium ionophore-induced cataract in cultured rat lenses (opacity by image analyser); format: cell-based, male S.D. rats; conditions: 10 µM calcium ionophore (A23187)
Experimental: Lenses were dissected from 4-week-old male S.D. rats, and cultured for one day in (1) a basic culture medium (MEM), (2) a culture medium of (1) supplemented with 10 µM calcium ionophore (A23187), or (3) a culture medium of (2) supplemented with 4, 20, 100 or 500 µM E-64 or E-64d. Thereafter, the medium was changed as follows: (1) basic medium, (2) basic medium, and (3) basic medium with several concentrations of E-64 or E-64d, and culture was continued for 4 more days, after which opacity of lenses was measured using an image analyser. The ratio of the inhibition of the development of lens opacity by each test drug (E-64, E-64d) to that in the control group is shown in Fig. 2. […] As is evident from the results of Fig. 2, E-64 or E-64d inhibited the opacity of lens caused by calcium ionophore in a concentration-dependent manner. The inhibition effect was stronger in E-64d than in E-64, and the opacity of lens was inhibited by 50% or more at a concentration of 20 µM.

cultured rat lenses [2] = conditions: selenite cataract models and diabetic cataract models of cultured rat lenses; Atarashii Ganka, vol. 6, 1573-1576 (1989); cited from earlier work
[3] = test system: galactose cataract in rats; experiment: Galactose cataract in rats (slit lamp, Sippel grades); format: in vivo, male SD rats; conditions: for progression of cataract (grades of Sippel) compared with control: Wilcoxon method; for progression of cataract compared with control, time series variance analysis: up to day 28
Experimental: Three-week-old male SD rats (n=30) were bred in a breeding room having a temperature of 24±4°C and humidity of 55±15%, on Labo MR stock (manufactured by Nihon Nosan Kogyo Co., Ltd., Japan) and tap water.
As the test drugs, used were (1) 1% solution of E-64c prepared by dissolving E-64c bulk powder in 0.1N sodium hydroxide, adjusting the pH to 5 with 0.1N hydrochloric acid, and adding purified water; and (2) 1% suspension of E-64d prepared by suspending E-64d bulk powder in 0.3% Tween 80, the osmotic pressure of both of which having been adjusted to 290 mOsm/kg H₂O with sodium chloride. As a control, used was (3) physiological saline.
The test animals were pre-bred for a week, and then bred on a 25% galactose feed (solidified product of a mixture of galactose and Labo MR stock powder at the ratio of 1:3). The animals were fed for 24 hours daily for the first 7 days, and 9 hours a day from the 8th day. The test drugs were administered from the day when galactose feeding was initiated, and (1) was administered intraperitoneally once a day (100 mg/kg, 1 ml/100g as liquid), and (2) was instilled only in the right eye 4 times a day by 5 µl at a time without treatment to the left eye. The control group was instilled with (3) in the same manner as in the case of (2) without treatment to the left eye.
Lenses were observed under mydriasis using a slit lamp (SL-5D) at 7 day-intervals from the initiation of the test drug and physiological saline (control) administrations until day 28, and the progression of cataract up to the mature cataract was evaluated according to the following 8 stages of cataract grades defined by Sippel [Invest. Ophthalmol., vol. 6, 568-575 (1966)].

[4] = Corneal permeability in vitro (side-by-side permeation cell)
Experimental: Corneal permeability was tested in vitro using a side-by-side type permeation cell equipped with cornea from albino rabbit. A 1% E-64c solution prepared using a buffer having the following formulation was charged in a donor cell, and the following buffer was charged in a receptor cell, and they were incubated at 34°C. The amount of E-64c permeated into the receptor cell was measured with time. The accumulative amount of the permeated E-64c was measured 1, 2, and 3 hours later.
In the same manner as in Experiment Example 4, corneal permeability of a 1% E-64d suspension (pH 7) was examined.

cataract in Nakano mouse = experiment: Cataract in Nakano mouse, intraperitoneal administration; format: in vivo, Nakano mice
Experimental: Thirty-five Nakano mice (9 days old) were divided into three groups, and each group was intraperitoneally administered once a day with E-64d at 30 mg/kg or 100 mg/kg, or 5% gum arabic solution as a control. E-64d was suspended in 5% gum arabic solution at a concentration of 0.15% or 0.5%, respectively, and administered to the mice. After the eyes of the mice opened, opacity of the lens was observed using a slip lamp to evaluate progress of cataract.

[5] = pH stability of 1% E-64d suspensions; format: physicochemical; conditions: 1% E-64d suspension
Source text: The stability of 1% E-64d suspensions adjusted to various pHs was examined. […]

Structure (SMILES): CC(C)C[C@H](NC(=O)[C@H]1O[C@@H]1C(=O)O)C(=O)NCCCCNC(=N)N [E-64, trans-epoxysuccinyl-leucylamide-(4-guanidino)butane, reference compound]
inhibition of the opacity of lens caused by calcium ionophore (cultured rat lenses [1]; 4, 20, 100 or 500 µM): concentration-dependent
effect on opacity of lens (cultured rat lenses [2]): can prevent opacity of lens

corneal permeability, dependence on pH [4]: pH-dependent
Structure (SMILES): CC(C)CCNC(=O)[C@H](CC(C)C)NC(=O)[C@H]1O[C@@H]1C(=O)O [E-64c, (+)-(2S,3S)-3[(S)-3-methyl-1-(3-methylbutylcarbamoyl)butylcarbamoyl]-2-oxiranecarboxylic acid]
progression of cataract (grades of Sippel) compared with control ([3]; 1% E-64c solution, 100 mg/kg intraperitoneally once a day, 14 days from initiation of administration): significant delay of cataract
progression of cataract compared with control, time series variance analysis ([3]; 1% E-64c solution, 100 mg/kg intraperitoneally once a day): significant delay of cataract
effect on corneal tissue ([4]; 1% E-64c solution, pH range of 3 or below): tissue disorders causing corneal opacity were observed

E-64d in the receptor solution ([4]; pH 7): not detected
stability ([5]; in the vicinity of pH 4-6): stable
residual rate ([5]; pH 4, 40°C (4 wk), 40320 min): 96.6%
residual rate ([5]; pH 4, 60°C (1 wk), 10080 min): 98.7%
residual rate ([5]; pH 5, 40°C (4 wk), 40320 min): 99.8%
residual rate ([5]; pH 5, 60°C (1 wk), 10080 min): 98.7%
residual rate ([5]; pH 6, 40°C (4 wk), 40320 min): 95.2%
residual rate ([5]; pH 6, 60°C (1 wk), 10080 min): 97.9%
residual rate ([5]; pH 7, 40°C (4 wk), 40320 min): 75.7%
Structure (SMILES): CCOC(=O)[C@H]1O[C@@H]1C(=O)N[C@@H](CC(C)C)C(=O)NCCC(C)C [E-64d]
progression of cataract (grades of Sippel) compared with control ([3]; 1% E-64d suspension instilled 4 times a day, 5 µl, 7 days from initiation of administration): significant delay of cataract
progression of cataract (grades of Sippel) compared with control ([3]; 1% E-64d suspension instilled 4 times a day, 5 µl, 14 days from initiation of administration): significant delay of cataract
progression of cataract (grades of Sippel) compared with control ([3]; 1% E-64d suspension instilled 4 times a day, 5 µl, 21 days from initiation of administration): delaying tendency
progression of cataract compared with control, time series variance analysis ([3]; 1% E-64d suspension instilled 4 times a day, 5 µl): significant delay of cataract
inhibition effect on lens opacity, E-64d compared with E-64 (cultured rat lenses [1]; 4, 20, 100 or 500 µM): stronger
inhibition of the opacity of lens caused by calcium ionophore (cultured rat lenses [1]; 4, 20, 100 or 500 µM): concentration-dependent
inhibition at 20 µM (cultured rat lenses [1]; Rattus norvegicus, 120 h, 20 µM, 5 days culture, read-out: percent inhibition of lens opacity based on the opacity in the control group): ≥ 50%
proportion of the group showing nuclear opacity (cataract in Nakano mouse; 30 mg/kg intraperitoneally once a day, mice 21 days old (control about 40%)): about 12%
development of nuclear opacity (cataract in Nakano mouse; 100 mg/kg intraperitoneally once a day, mice 21 days old (control about 40%)): no development of opacity was observed
degree of nuclear opacity compared with control, time-course observation (cataract in Nakano mouse; E-64d 30 or 100 mg/kg intraperitoneally once a day): limited to a smaller degree
